According to US9833444B2 (priority 2013, dated 2017):
Where two headings read alike, the source gives them in different places.

Key:
[1] = target: recombinant toxin sphingomyelinase D (SMase D) (Loxosceles laeta, UniProt Q8I914); test: biochemical; details: for inhibition at 40 µM: read-out: inhibition of the hydrolytic activity of recombinant toxin on the SM substrate
[2] = test system: venom of Loxosceles laeta; type: biochemical; details: for inhibition of the hydrolytic activity of the venom of L. laeta on the SM substrate: 40 µM
human red blood cells [3] = type: cell-based
human red blood cells [4] = type: cell-based; remark: listed apart in the source
human keratinocytes [5] = type: cell-based; details: compound 40 μM; flow cytometry
MMP-2 = type: cell-based, human
MMP-9 = type: cell-based, human
[6] = test system: dermonecrotic lesions developed in rabbits; type: in vivo; details: for histopathological analysis of the skin of rabbits inoculated with the venom: rabbit, in vivo; for reduction of dermonecrotic injury, 24 hours after venom inoculation / inhibition of dermonecrotic injury, 48 hours / inhibition of dermonecrotic injury, 72 hours: rabbits; for reduction of dermonecrotic injury, 24 hours after venom inoculation: compound at three times IC50 (136.2 μM compound 5, 190.2 μM compound 6); for inhibition of dermonecrotic injury, 48 hours / inhibition of dermonecrotic injury, 72 hours: compound at three times IC50
ERK1/2 = test: Activation of MAPK ERK1/2 signaling pathway in keratinocytes induced by recombinant SMases D, ELISA; type: cell-based, human; details: compound 40 μM
human keratinocytes [7] = test: cells; type: cell-based; details: Keratinocyte, read-out: inhibition of superoxide production
TNF receptor = type: cell-based, human
TNF-α = type: cell-based, human
TGF-β1 = type: cell-based, human
[8] = Average inhibition of all activities tested (overall efficiency); details: average over all aspects analyzed
From the text: Thus, taking into consideration all the aspects analyzed, compound 5 of the present invention is 61.1% efficient, while compound 6 of this invention is 54.1% efficient in relation to the mechanisms involved in the toxicity of SMases D in the development of loxoscelism.

[9] = target: PLD of C. pseudotuberculosis (Corynebacterium pseudotuberculosis, UniProt P20626); type: biochemical
[10] = target: SMases of Stahylococcus aureus (Staphylococcus aureus, UniProt P09978); test: Hydrolytic activity of SMase of Staphylococcus aureus on sphingomyelin; type: biochemical; details: compound 40 μM
human keratinocytes [11] = test: cells; details: Keratinocyte
[12] = read-out: viability of human keratinocytes treated with recombinant toxin
[13] = read-out: viability of human keratinocytes treated with venom of L. laeta

Chain of recombinant toxin sphingomyelinase D (SMase D) (Q8I914 27-311 limits assumed): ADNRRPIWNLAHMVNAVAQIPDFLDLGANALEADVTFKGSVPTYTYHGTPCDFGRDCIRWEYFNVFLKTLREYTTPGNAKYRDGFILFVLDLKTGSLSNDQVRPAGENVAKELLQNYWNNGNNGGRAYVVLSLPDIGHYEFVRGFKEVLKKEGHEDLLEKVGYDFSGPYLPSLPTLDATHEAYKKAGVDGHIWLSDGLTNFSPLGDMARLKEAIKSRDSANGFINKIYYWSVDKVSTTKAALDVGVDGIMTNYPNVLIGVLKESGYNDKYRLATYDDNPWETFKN
Chain of PLD of C. pseudotuberculosis (P20626 25-307 limits assumed): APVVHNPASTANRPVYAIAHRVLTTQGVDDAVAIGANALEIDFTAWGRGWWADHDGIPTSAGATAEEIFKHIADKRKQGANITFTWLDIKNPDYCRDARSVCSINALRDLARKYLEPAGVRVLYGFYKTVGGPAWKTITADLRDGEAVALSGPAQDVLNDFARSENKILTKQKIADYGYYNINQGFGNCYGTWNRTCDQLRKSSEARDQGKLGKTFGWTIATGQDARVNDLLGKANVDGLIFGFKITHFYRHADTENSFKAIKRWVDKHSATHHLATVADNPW
Chain of SMases of Stahylococcus aureus (P09978 35-330 limits assumed): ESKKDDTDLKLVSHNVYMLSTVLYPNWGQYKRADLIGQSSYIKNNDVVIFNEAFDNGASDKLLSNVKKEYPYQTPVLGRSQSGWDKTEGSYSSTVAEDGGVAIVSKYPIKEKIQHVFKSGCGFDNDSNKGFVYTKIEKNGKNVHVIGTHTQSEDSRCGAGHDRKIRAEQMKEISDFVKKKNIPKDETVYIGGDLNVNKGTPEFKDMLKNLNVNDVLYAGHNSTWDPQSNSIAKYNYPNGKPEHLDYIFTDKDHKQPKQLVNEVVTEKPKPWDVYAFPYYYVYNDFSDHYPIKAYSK

| SMILES | IC50 [1] | inhibition mechanism [1] | reduction of the hydrolytic activity of recombinant toxin on substrate LPC [1] | inhibition at 40 µM [1] | reduction of the hydrolytic activity of the venom on substrate LPC [2] | inhibition of the hydrolytic activity of the venom of L. laeta on the SM substrate [2] | reduction of removal of glycophorin C from the surface of human red blood cells (human red blood cells [3]) | reduction of binding of the toxin to the red blood cell surface (human red blood cells [4]) | reduction of binding of SMases present in venom to the surface of human keratinocytes (human keratinocytes [5]) | reduction of binding of recombinant toxin to the surface of human keratinocytes (human keratinocytes [5]) | reduction of MMP-2 secretion (MMP-2) | inhibition of MMP-9 secretion (MMP-9) | histopathological analysis of the skin of rabbits inoculated with the venom [6] | reduction of dermonecrotic injury, 24 hours after venom inoculation [6] | inhibition of dermonecrotic injury, 48 hours [6] | inhibition of dermonecrotic injury, 72 hours [6] | reduction of phosphorylated ERK1/2 (ERK1/2) | inhibition at 40 µM (human keratinocytes [7]) | reduction of TNF-α production (TNF-α) | reduction of TGF-β1 production (TGF-β1) | further results |
| --- | --- | --- | --- | --- | --- | --- | --- | --- | --- | --- | --- | --- | --- | --- | --- | --- | --- | --- | --- | --- | --- |
| Cc1[nH]c2ccccc2c1/C=N/NS(=O)(=O)c1ccc(Br)cc1 [Compound 5, 4-bromo-N-[(E)-(2-methyl-1H-indol-3-yl)methyleneamino]benzenosulfonamide] | 45.4 ± 1.2 µM | uncompetitive action inhibitors | 38.6% | 45.7% | 44.4% | 53% | 92.6% | 96.8% | 63.8% | 54.9% | 81% | completely inhibit | reduction in the disorganization of the collagen fibers in the dermis, absence of hemorrhage and inflammatory infiltrate | 61.8% | 60% | 56% | 65.8% | 70.7% | 73.9% | 88.3% | reversal of toxin-induced removal of the TNF receptor from the cell surface (TNF receptor): 27.7%; efficiency in relation to the mechanisms involved in the toxicity of SMases D (average inhibition of all activities tested) [8]: 61.1%; reduction of PLD activity of C. pseudotuberculosis on sphingomyelin [9]: about 70%; reduction of hydrolytic activity of SMase of Staphylococcus aureus [10]: efficiently reduced; viability at 10 µM (human keratinocytes [11]; [12]): 55.8%; viability at 10 µM (human keratinocytes [11]; [13]): 45.9% |
| Cc1cc(OS(=O)(=O)c2ccc(Cl)cc2)cc2c1C(=O)C(=Cc1cccnc1)O2 [Compound 6, 4-methyl-3-oxo-2-(3-pyridylmethylene)benzo[3,4-b]furan-6-yl-4-chlorobenzenesulphonate] | 63.4 ± 1.1 µM | uncompetitive action inhibitors | 34% | 51% | 16% | 22.7% | 88.2% | 84% | 25.6% | 50.77% | 98.4% | completely inhibit | reduction in the disorganization of the collagen fibers in the dermis, absence of hemorrhage and inflammatory infiltrate | 36% | 45% | 49% | 80.2% | 92.7% | 61.1% | 89.2% | efficiency in relation to the mechanisms involved in the toxicity of SMases D (average inhibition of all activities tested) [8]: 54.1%; reduction of PLD activity of C. pseudotuberculosis on sphingomyelin [9]: about 68%; reduction of hydrolytic activity of SMase of Staphylococcus aureus [10]: efficiently reduced; viability at 10 µM (human keratinocytes [11]; [12]): 53.5%; viability at 10 µM (human keratinocytes [11]; [13]): 59.3% |
